From publication PMC8286840, “Identifying SARS-CoV-2 antiviral compounds by screening for small molecule inhibitors of Nsp3 papain-like protease” (Biochemical Journal, 2021)
Where a name gives a salt, the structure may show the parent alone. Read-outs that look alike come from different tables or passages of the source.

Assays:
[1] = target: T1, SARS-CoV-2 PLpro (nsp3 1564–1878) (Severe acute respiratory syndrome coronavirus 2, UniProt P0DTD1); test: biochemical; design: FRET-quenched peptide (Pro3) cleavage by PLpro, 10 min pre-incubation, slope over 20 min, normalised to no-compound control; details: read-out: % of control remaining
[2] = target: T1, SARS-CoV-2 PLpro (nsp3 1564–1878); test: biochemical; design: FRET-quenched peptide (Pro3) cleavage by PLpro, 10 min pre-incubation, slope over 20 min, normalised to no-compound control; details: read-out: % of control remaining; remark: listed apart in the source

CC(C)(C)c1nc2c3cc[nH]c(=O)c3c3cc(F)ccc3c2[nH]1 [JAK Inhibitor I]
remaining activity at 1.25 µM ([1]; Well no.=2455, low concentration screen): 101% | remaining activity at 3.75 µM ([2]; Well no.=2455, high concentration screen): 103%

CC(C)[C@H](N=C(NS(=O)(=O)c1ccc(Cl)cc1)N1C[C@H](c2ccccc2)C(c2ccc(Cl)cc2)=N1)C(N)=O [JD-5037]
remaining activity at 1.25 µM ([1]; Well no.=8487, low concentration screen): 97.2% | remaining activity at 3.75 µM ([2]; Well no.=8487, high concentration screen): 82.1%

CC(C)[C@@H](CN1CC[C@@](C)(c2cccc(O)c2)[C@@H](C)C1)NC(=O)[C@H]1Cc2ccc(O)cc2CN1 [JDTic (dihydrochloride)]
remaining activity at 1.25 µM ([1]; Well no.=7139, low concentration screen): 99.3% | remaining activity at 3.75 µM ([2]; Well no.=7139, high concentration screen): 97%

Cc1ccc2c(c1)C(N1CCN(C)CC1)=Nc1cccnc1N2 [JL-18]
remaining activity at 1.25 µM ([1]; Well no.=781, low concentration screen): 107% | remaining activity at 3.75 µM ([2]; Well no.=781, high concentration screen): 103%

CO[C@H]1CC[C@@H](C(=O)c2ccc3nc4c(cc3c2)CCCO4)CC1 [JNJ16259685]
remaining activity at 1.25 µM ([1]; Well no.=6955, low concentration screen): 100% | remaining activity at 3.75 µM ([2]; Well no.=6955, high concentration screen): 102%

Cn1cc(-c2ccc3nnc(C(F)(F)c4ccc5ncccc5c4)n3n2)cn1 [JNJ38877605]
remaining activity at 1.25 µM ([1]; Well no.=2887, low concentration screen): 101% | remaining activity at 3.75 µM ([2]; Well no.=2887, high concentration screen): 102%

O=C(Nc1ccccc1)N1CCN(c2nc(-c3ccccc3)ns2)CC1 [JNJ 1661010]
remaining activity at 1.25 µM ([1]; Well no.=5167, low concentration screen): 98.1% | remaining activity at 3.75 µM ([2]; Well no.=5167, high concentration screen): 104%

Nc1nc(Nc2ccc(S(N)(=O)=O)cc2)nn1C(=O)c1c(F)cccc1F [JNJ-7706621]
remaining activity at 1.25 µM ([1]; Well no.=8260, low concentration screen): 91.9% | remaining activity at 3.75 µM ([2]; Well no.=8260, high concentration screen): 92%

CN1CCN(C(=O)c2cc3cc(Cl)ccc3[nH]2)CC1 [JNJ-7777120]
remaining activity at 1.25 µM ([1]; Well no.=5217, low concentration screen): 101% | remaining activity at 1.25 µM ([1]; Well no.=6949, low concentration screen): 103% | remaining activity at 3.75 µM ([2]; Well no.=5217, high concentration screen): 104% | remaining activity at 3.75 µM ([2]; Well no.=6949, high concentration screen): 96%

Cn1cc(CNCC2CCN(c3ncc(C(=O)NO)cn3)CC2)c2ccccc21 [JNJ-26481585]
remaining activity at 1.25 µM ([1]; Well no.=5224, low concentration screen): 98.6% | remaining activity at 3.75 µM ([2]; Well no.=5224, high concentration screen): 98.4%

C[C@H](NC(=O)CNC(=O)c1cccc(Cl)c1)c1ccccc1 [JNJ-63533054]
remaining activity at 1.25 µM ([1]; Well no.=8047, low concentration screen): 98.3% | remaining activity at 3.75 µM ([2]; Well no.=8047, high concentration screen): 102%

N#Cc1c(NC(=O)c2cccc3ccccc23)sc2c1CCCC2 [JNK Inhibitor IX]
remaining activity at 1.25 µM ([1]; Well no.=2518, low concentration screen): 99.9% | remaining activity at 3.75 µM ([2]; Well no.=2518, high concentration screen): 103%

CCOc1nc(NC(=O)Cc2cc(OC)ccc2OC)cc(N)c1C#N [JNK Inhibitor VIII]
remaining activity at 1.25 µM ([1]; Well no.=2550, low concentration screen): 99.5% | remaining activity at 3.75 µM ([2]; Well no.=2550, high concentration screen): 100%

Cn1nc2c3c(cccc31)C(=O)c1ccccc1-2 [JNK Inhibitor, Negative Control]
remaining activity at 1.25 µM ([1]; Well no.=2514, low concentration screen): 91% | remaining activity at 3.75 µM ([2]; Well no.=2514, high concentration screen): 92.4%

CCc1ccc(OCc2ccccc2C(=O)Nc2ccc3nc(C)cc(N)c3c2)cc1 [JTC-801]
remaining activity at 1.25 µM ([1]; Well no.=5025, low concentration screen): 98.2% | remaining activity at 1.25 µM ([1]; Well no.=7002, low concentration screen): 95.7% | remaining activity at 3.75 µM ([2]; Well no.=5025, high concentration screen): 98.7% | remaining activity at 3.75 µM ([2]; Well no.=7002, high concentration screen): 91.5%

CCCn1c(C)c(C(=O)c2cccc3ccccc23)c2ccccc21 [JWH-015]
remaining activity at 1.25 µM [1]: 92.6% | remaining activity at 3.75 µM [2]: 93.1%

CCCC(C)(C)c1ccc2c(c1)OC(C)(C)[C@@H]1CC=C(C)C[C@@H]21 [JWH-133]
remaining activity at 1.25 µM [1]: 102% | remaining activity at 3.75 µM [2]: 104%

O=C(Oc1ccc([N+](=O)[O-])cc1)N1CCC(C(O)(c2ccc3c(c2)OCO3)c2ccc3c(c2)OCO3)CC1 [JZL184]
remaining activity at 1.25 µM ([1]; Well no.=8838, low concentration screen): 92.7% | remaining activity at 3.75 µM ([2]; Well no.=8838, high concentration screen): 91.1%

O=C(Oc1ccc([N+](=O)[O-])cc1)N1CCN(Cc2cccc(Oc3ccccc3)c2)CC1 [JZL195]
remaining activity at 1.25 µM ([1]; Well no.=5512, low concentration screen): 107% | remaining activity at 3.75 µM ([2]; Well no.=5512, high concentration screen): 108%

CC1=C2C(=O)[C@H]3[C@@H](CC=C4C[C@@H](O)CC[C@@]43C)[C@@H]2CC[C@]12O[C@@H]1C[C@H](C)CN[C@H]1[C@H]2C [Jervine]
remaining activity at 1.25 µM ([1]; Well no.=3367, low concentration screen): 92% | remaining activity at 3.75 µM ([2]; Well no.=3367, high concentration screen): 96.2%

COC(=O)[C@]1(O)C[C@@H]2O[C@@]1(C)n1c3ccccc3c3c4c(c5c6ccccc6n2c5c31)C(=O)NC4 [K-252a, Nocardiopsis sp.]
remaining activity at 1.25 µM ([1]; Well no.=2552, low concentration screen): 95.7% | remaining activity at 3.75 µM ([2]; Well no.=2552, high concentration screen): 95.2%

C=CC(=O)N1CCN(C(=O)CNc2cc(I)c(Cl)cc2O)CC1 [K-Ras(G12C) inhibitor 12]
remaining activity at 1.25 µM ([1]; Well no.=7951, low concentration screen): 99.9% | remaining activity at 3.75 µM ([2]; Well no.=7951, high concentration screen): 90.4%

N=C(N)SCCc1ccc(OCc2ccc([N+](=O)[O-])cc2)cc1 [KB-R7943]
remaining activity at 1.25 µM ([1]; Well no.=5823, low concentration screen): 105% | remaining activity at 3.75 µM ([2]; Well no.=5823, high concentration screen): 106%

O=S(=O)(NCCSSCCNS(=O)(=O)c1cc(Cl)ccc1Cl)c1cc(Cl)ccc1Cl [KC7F2]
remaining activity at 1.25 µM ([1]; Well no.=8580, low concentration screen): 107% | remaining activity at 3.75 µM ([2]; Well no.=8580, high concentration screen): 102%

NC(=O)c1ccc(-c2cc(-c3ccc([N+](=O)[O-])cc3)nc(-c3ccco3)c2)cc1 [KJ Pyr 9]
remaining activity at 1.25 µM ([1]; Well no.=6346, low concentration screen): 99.3% | remaining activity at 3.75 µM ([2]; Well no.=6346, high concentration screen): 101%

CN([C@@H](Cc1ccc(OS(=O)(=O)c2cccc3cnccc23)cc1)C(=O)N1CCN(c2ccccc2)CC1)S(=O)(=O)c1cccc2cnccc12 [KN-62]
remaining activity at 1.25 µM ([1]; Well no.=670, low concentration screen): 97.4% | remaining activity at 1.25 µM ([1]; Well no.=2308, low concentration screen): 99.3% | remaining activity at 3.75 µM ([2]; Well no.=670, high concentration screen): 95.8% | remaining activity at 3.75 µM ([2]; Well no.=2308, high concentration screen): 99%

COc1ccc(S(=O)(=O)Nc2ccccc2CN(C)C/C=C/c2ccc(Cl)cc2)cc1 [KN-92]
remaining activity at 1.25 µM ([1]; Well no.=2483, low concentration screen): 96.3% | remaining activity at 3.75 µM ([2]; Well no.=2483, high concentration screen): 94.2%

COc1ccc(S(=O)(=O)N(CCO)c2ccccc2CN(C)C/C=C/c2ccc(Cl)cc2)cc1 [KN-93]
remaining activity at 1.25 µM ([1]; Well no.=2556, low concentration screen): 103% | remaining activity at 3.75 µM ([2]; Well no.=2556, high concentration screen): 102%

O=CN1CC/C(=C\c2ccc3c(c2)OCO3)C1=O [KNK437]
remaining activity at 1.25 µM ([1]; Well no.=8768, low concentration screen): 92.1% | remaining activity at 3.75 µM ([2]; Well no.=8768, high concentration screen): 89.6%

O=C(Nc1ccccc1C(=O)Nc1ccc(CCO)cc1)c1ccc([N+](=O)[O-])cc1 [KS-176]
remaining activity at 1.25 µM ([1]; Well no.=5911, low concentration screen): 101% | remaining activity at 3.75 µM ([2]; Well no.=5911, high concentration screen): 102%

CCCCCCOC(=O)[C@]1(O)C[C@@H]2O[C@@]1(C)n1c3ccccc3c3c4c(c5c6ccccc6n2c5c31)C(=O)NC4 [KT5720]
remaining activity at 1.25 µM ([1]; Well no.=2481, low concentration screen): 105% | remaining activity at 3.75 µM ([2]; Well no.=2481, high concentration screen): 109%

COc1ccc(-c2ccc3c(N4CCOCC4)nc(N4C[C@@H](C)O[C@@H](C)C4)nc3n2)cc1CO [KU0063794]
remaining activity at 1.25 µM ([1]; Well no.=2899, low concentration screen): 105% | remaining activity at 3.75 µM ([2]; Well no.=2899, high concentration screen): 103%

O=c1cc(-c2cccc3c2Sc2ccccc2S3)oc(N2CCOCC2)c1 [KU 55933 - 2-(4-Morpholinyl)-6-(1-thianthrenyl)-4H-pyran-4-one]
remaining activity at 1.25 µM ([1]; Well no.=2438, low concentration screen): 101% | remaining activity at 3.75 µM ([2]; Well no.=2438, high concentration screen): 103%

C[C@@H]1CN(CC(=O)Nc2ccc3c(c2)Cc2cccc(-c4cc(=O)cc(N5CCOCC5)o4)c2S3)C[C@H](C)O1 [KU-60019]
remaining activity at 1.25 µM ([1]; Well no.=5299, low concentration screen): 93.8% | remaining activity at 3.75 µM ([2]; Well no.=5299, high concentration screen): 85.8%
